Assay results reported in patent publication US6562828B1, “Amidine compounds” (Japan Tobacco Inc., priority 1998, dated 2003).
Where a name gives a salt, the structure may show the parent alone.

Columns and labels:
Human FXa [1] = target: T1, Human FXa (Homo sapiens, UniProt P00742); test: Intravenous administration test in monkey, human FXa inhibitory activity in plasma; assay type: in vivo; details: crab-eating monkey, i.v., mean ± S.D., n = 3
T1 construct: Human FXa [Enzyme research Laboratories (USA)] enzyme; purchased Enzyme Research Laboratories (USA)
Procedure: (§1) Human FXa inhibitory activity was measured as follows. Human FXa [Enzyme research Laboratories (USA)] enzyme (40 μl, 0.5 U/ml) and a 4-fold diluted plasma sample (40 μl) were incubated in 0.1M Tris-0.2M NaCl buffer (pH 8.4) (40 μl) at 37° C. for 10 min. A synthetic substrate S-2222 (Daiichi Pure Chemical (Tokyo, Japan), 40 μl) adjusted to 0.8 mM was added and the mixture was incubated at 37° C. for 5 min. The reaction was stopped by addition of 60% acetic acid (40 μl) and absorbance at 405 nm was measured by Model 3550 (BIO-RAD). For the control, serum or plasma obtained prior to blood sampling was used for measurement. Human FXa inhibitory activity was calculated as inhibition percentage (%) against control.
Intravenous Administration Tests in Monkey
A test compound dissolved in physiological saline was intravenously administered to monkey (crab-eating monkey, body weight 3.5-4.5 kg) and the activity of the test compound was evaluated based on the human FXa inhibitory activity in plasma as an indicator.
(§2) At 10, 30, 60, 120, 180 min from the intravenous administration, blood was taken from the saphenous vein with the passage of time and the blood was centrifuged at 2000 G for 10 min. The obtained citric acid plasma was used for the determination. Human FXa inhibitory activity was determined in the same manner as in the test using mouse.
Target sequence in this assay (P00742 235-488 limits assumed): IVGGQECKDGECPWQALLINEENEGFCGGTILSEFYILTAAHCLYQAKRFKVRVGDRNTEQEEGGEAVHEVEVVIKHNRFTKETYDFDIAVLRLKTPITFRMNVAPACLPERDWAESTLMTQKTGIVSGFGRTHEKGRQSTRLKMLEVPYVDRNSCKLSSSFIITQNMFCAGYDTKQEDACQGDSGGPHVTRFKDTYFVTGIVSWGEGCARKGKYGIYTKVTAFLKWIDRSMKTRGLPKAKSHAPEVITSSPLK
Target sequence in this assay (P00742 41-179 limits assumed): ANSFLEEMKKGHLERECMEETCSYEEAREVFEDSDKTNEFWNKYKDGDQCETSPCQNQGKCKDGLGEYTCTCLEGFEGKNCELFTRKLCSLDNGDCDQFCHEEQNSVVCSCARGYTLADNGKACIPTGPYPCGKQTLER

Human FXa [2] = target: T1, Human FXa; test: Oral administration test in mouse, human FXa inhibitory activity in serum; assay type: in vivo; details: ICR mice, mean ± S.D., n = 3
Procedure: as §1
Target sequence in this assay (P00742 235-488 limits assumed): as the sequence (P00742 235-488 limits assumed) above
Target sequence in this assay (P00742 41-179 limits assumed): as the sequence (P00742 41-179 limits assumed) above
Oral Administration Tests in Mouse
A test compound dissolved in distilled water was orally administered to ICR mice (body weight 20-30 g, 4-6 weeks old) and the activity of the test compound was evaluated based on the human FXa inhibitory activity in serum as an indicator.
At 30, 60, 120, 180 min from the oral administration, blood was taken from the eye ground using a hematocrit tube. The blood was centrifuged at 9000 G for 5 min and the obtained serum was used for the determination. Human FXa inhibitory activity was determined in the same manner as in the test by intravenous administration.

Human FXa [3] = target: T1, Human FXa; test: Intravenous administration test in mouse, human FXa inhibitory activity in serum; assay type: in vivo; details: ICR mice, i.v., mean ± S.D., n = 3
Procedure: Intravenous Administration Tests in Mouse
A test compound dissolved in physiological saline was intravenously administered to ICR mice (body weight 20-30 g, 4-6 weeks old) and the activity of the test compound was evaluated based on the human FXa inhibitory activity in serum as an indicator.
At 10, 30, 60, 120 min from the intravenous administration, blood was taken from the eye ground using a hematocrit tube. The blood was centrifuged at 9000 G for 5 min and the obtained serum was used for the determination.
as §1
Target sequence in this assay (P00742 235-488 limits assumed): as the sequence (P00742 235-488 limits assumed) above
Target sequence in this assay (P00742 41-179 limits assumed): as the sequence (P00742 41-179 limits assumed) above

normal plasma [4] = test: Determination of prothrombin time (PT), human plasma; assay type: biochemical
Procedure: (§3) Determination of prothrombin time (PT)
(§4) Blood was taken from mouse, rat, crab-eating monkey and healthy human volunteers, and citric acid was added. The blood was centrifuged at 4° C. and 2000 G for 15 min to obtain normal plasma of various animals.
(§5) Purified water (5 μl) containing various concentrations of test compound was added to plasma (45 μl) and the resultant mixtures were used as samples. […] (Baxter) was prepared and heated at […] for 5 min, and a sample (50 μl) was admixed with the thrombin reagent (100 μl). The time (PT) until precipitation of fibrin was measured. The drug concentration that doubled the PT hours of the drug untreated group was calculated and taken as CT2.

normal plasma [5] = test: Determination of prothrombin time (PT), mouse plasma; assay type: biochemical
Procedure: as §3, §4, §5

Human FXa [6] = target: T1, Human FXa; test: Oral administration test in monkey, human FXa inhibitory activity in plasma; assay type: in vivo; details: crab-eating monkey, mean ± S.D., n = 3
Procedure: as §1
Target sequence in this assay (P00742 235-488 limits assumed): as the sequence (P00742 235-488 limits assumed) above
Target sequence in this assay (P00742 41-179 limits assumed): as the sequence (P00742 41-179 limits assumed) above
Oral Administration Tests in Monkey
A test compound dissolved in distilled water was orally administered to monkey (carb-eating monkey, body weight 3.5-4.5 kg) and the activity of the test compound was evaluated based on the human FXa inhibitory activity in plasma as an indicator.
as §2, with “At” for “At 10,”, “240, 480” for “180”, “oral” for “intravenous”, “by intravenous administration.” for “using mouse.”

Human FXa [7] = target: T1, Human FXa; test: Determination of anti-factor Xa (FXa) activity, synthetic substrate S-2222; assay type: biochemical; details: S-2222, 37° C., pH 8.4, read-out: Experimental Example 1: anti-FXa activity, IC50
Procedure: Determination of Anti-factor Xa (FXa) Activity
Human FXa [Enzyme research Laboratories (USA)] enzyme (40 μl, 0.16U/ml) and test compounds (40 l) adjusted to various concentrations were incubated in 0.1M Tris (Tris-hydroxymethyl-aminomethane) buffer (pH 8.4) containing 0.2M sodium chloride (herein to be referred to as 0.1 M tris-0.2M NaCl buffer) (40 μl) at 37° C. for 10 min. A synthetic substrate S-2222 (Daiichi Pure Chemical (Tokyo, Japan), 40 μl) adjusted to 0.8 mM was added and the mixture was incubated at 37° C. for 10 min. The reaction was stopped by addition of 60% acetic acid (40 μl) and absorbance at 405 nm was measured by Model 3550 (BIO-RAD). For the control, the solvent was used instead of the test compound.
Target sequence in this assay (P00742 235-488 limits assumed): as the sequence (P00742 235-488 limits assumed) above
Target sequence in this assay (P00742 41-179 partner limits assumed): as the sequence (P00742 41-179 limits assumed) above

- inhibition at 1 mg/kg (Human FXa [1]; 10 minutes): 90 ± 6%
- inhibition at 1 mg/kg (Human FXa [1]; 30 minutes): 90 ± 1%
- inhibition at 1 mg/kg (Human FXa [1]; 60 minutes): 86 ± 2%
- inhibition at 1 mg/kg (Human FXa [1]; 120 minutes): 77 ± 6%
- inhibition at 1 mg/kg (Human FXa [1]; 180 minutes): 65 ± 12%
- inhibition at 10 mg/kg (Human FXa [2]; 30 minutes): 46 ± 3%
- inhibition at 10 mg/kg (Human FXa [2]; 60 minutes): 34 ± 7%
- inhibition at 10 mg/kg (Human FXa [2]; 120 minutes): 20%
- inhibition at 10 mg/kg (Human FXa [2]; 180 minutes): 21 ± 5%
- inhibition at 0.1 mg/kg (Human FXa [3]; 10 minutes): 31 ± 3%
- inhibition at 0.1 mg/kg (Human FXa [3]; 30 minutes): 10 ± 3%
- inhibition at 0.1 mg/kg (Human FXa [3]; 60 minutes): 0%
- inhibition at 0.1 mg/kg (Human FXa [3]; 120 minutes): 0%
- inhibition at 0.3 mg/kg (Human FXa [3]; 10 minutes): 65 ± 1%
- inhibition at 0.3 mg/kg (Human FXa [3]; 30 minutes): 38 ± 5%
- inhibition at 0.3 mg/kg (Human FXa [3]; 60 minutes): 16 ± 3%
- inhibition at 0.3 mg/kg (Human FXa [3]; 120 minutes): 8 ± 4%
- inhibition at 1 mg/kg (Human FXa [3]; 10 minutes): 70 ± 1%
- inhibition at 1 mg/kg (Human FXa [3]; 30 minutes): 69 ± 2%
- inhibition at 1 mg/kg (Human FXa [3]; 60 minutes): 41 ± 10%
- inhibition at 1 mg/kg (Human FXa [3]; 120 minutes): 1 ± 3%
- inhibition at 10 mg/kg (Human FXa [6]; 30 minutes): 62 ± 53%
- inhibition at 10 mg/kg (Human FXa [6]; 60 minutes): 62 ± 51%
- inhibition at 10 mg/kg (Human FXa [6]; 120 minutes): 83 ± 13%
- inhibition at 10 mg/kg (Human FXa [6]; 240 minutes): 68 ± 16%
- inhibition at 10 mg/kg (Human FXa [6]; 480 minutes): 27 ± 10%
- IC50 (Human FXa [7]): 3 nM
SMILES: CC(=N)N1CCC(Oc2ccc(N(Cc3nc4cc(C(=N)N)ccc4n3CC(=O)N[C@@H](C)c3ccccc3)C(=O)c3ccc(C(=O)O)cc3)cc2)CC1 [Example 17, (S)-4-[N-[5-Amidino-1-(1-phenylethylcarbamoylmethyl)benzimidazole-2-ylmethyl]-N-[4-(1-acetimidoylpiperidin-4-yloxy)phenyl]carbamoyl]benzoic Acid Dihydrochloride]
- CT2 (drug concentration that doubled the PT) (normal plasma [4]): 0.5 µM
- CT2 (drug concentration that doubled the PT) (normal plasma [5]): 2 µM
